# Measurements as given in patent US20130072543A1, “Compounds and Compositions for Nucleic Acid Formulation and Delivery” (ARROWHEAD RESEARCH CORPORATION, priority 2011, published 2013).
# Strand notation (5' to 3'): a small letter for the sugar, then the base; units joined by * are phosphorothioate-linked, units joined directly phosphodiester-linked; [ ] holds rarer units or linkages, { } end groups; capitals alone tell only the bases. d = 2'-deoxy (DNA); m = 2'-O-methyl; r = 2'-OH (RNA)
# Test system: Kif11 mRNA
# Assay: In vivo administration of LNPs to mice, H&E histopathology of aberrant mitotic figures
# Settings: mouse bone marrow, 5 consecutive high power (400×) microscopic fields per sample
# Procedure: In Vivo Administration. Selected LNPs were dosed IV via tail vein injection on three successive days and the indicated tissues (see FIG. 11-13) were harvested and fixed in 10% zinc-formalin overnight, processed, paraffin embedded, sectioned at 5 μm, and stained with hematoxylin and eosin for histopathology assessment. In vivo delivery and Kif11 knockdown was shown with an increase in aberrant mitotic figures as a surrogate for Kif11 mRNA loss in murine liver, spleen and bone marrow tissue. Mitotic figures refer to chromosome aggregation during mitosis.
substance,measurement,value
"LUC: control siRNA targeting Firefly Luciferase mRNA, 21 nucleotides, SEQ ID 3 and 4 (chain 1 mCmUmUrAmCrGmCmUrGrArGmUrAmCmUmUmCrGrAdT*dT; chain 2 rUrCrGrArArGmUrArCrUmCrArGrCrGmUrArArGdT*dT; listed as Photinus pyralis)",Average no. of aberrant mitotic figures,0
